Patent US10265374B2, “Occidiofungin formations and uses thereof” (MISSISSIPPI STATE UNIVERSITY, priority 2014, dated 2019)

Legend:
SW1088 = experiment: In vitro toxicity screening (CellTiter-Blue cell viability, 48 hours); type: cell-based, human; settings: SW1088 astrocytoma brain cancer cell line, mean of three independent experiments, read-out: TC50 (the source's name)
Description: (§1) Cancer cell lines, OVCAR8 (Center for Cancer Research (OVAR.8; Sample ID 25)), SW1088 (ATCC-HTB-12), and Toledo (ATCC CRL-2631), and normal human neonatal dermal fibroblasts cell line (ATCC-PCS-201-010) were passaged and prepped as previously described (See References 15-17). OVCAR8, SW1088, and Toledo2631 are ovarian, brain, and B-cell lymphoma cancer cell lines, respectively. This panel of cell lines was chosen based, in part, on their being from very different cancer types in order to discern whether occidiofungin would have a broad spectrum activity towards cancer cell lines of vastly different parental organ/cell types. OVCAR8 cells are widely used in the field of cancer therapeutic research as a panel representative of ovarian cancer in screening experiments for identifying both ovarian-specific and non-specific (i.e., anti-neoplastic activity on multiple cancer cell types) therapeutic agents (See References 28-30). Similarly, SW1088 cells are widely used in the field of cancer therapeutic research as a panel representative of glioma (the most common brain cancer) in screening experiments for identifying both glioma-specific and non-specific therapeutic agents (See References 31-32). Toledo 2631 cells are derived from lymphoma cells, and are used in the field of cancer therapeutic research for identifying lymphoma-specific and non-specific therapeutic agents (See, e.g., Reference 33). […] Cell counts per plate were calculated to be approximately 50,000 cells/mL. A 10× stock solution of occidiofungin was prepared at 65 μM concentration in 10% dimethyl sulfoxide (DMSO). Two-fold serial dilutions on a 96 well plate were set up in triplicate with starting concentration of 6.5 μM and a final concentration of 3 nM. Bortezomib was used as a comparator for toxicity against human fibroblast and was serially diluted two-fold starting at a concentration of 5 μM and ending at 2.5 nM. Bortezomib is used clinically against myeloma and lymphoma cancers in patients refractory against other chemotherapeutics (See References 18, 19). Furthermore, bortezomib has shown efficacy against a variety of solid tumors and cancer cell lines, making this an appropriate comparison molecule in the panel of cell lines chosen (See References 34-35). The plates were then incubated at 37° C. in 5% CO2 for 48 hours. After 48 hours, cell viability was monitored using CellTiter-Blue (Promega) cell viability assay by measuring the fluorescence emission of a redox activated dye (579EX/584EM) using a POLARstar Omega microplate reader (BMG Labtech).

OVCAR8 = experiment: as above; type: cell-based, human
Description: as §1

Toledo (ATCC CRL-2631) = experiment: as above; type: cell-based, human; settings: Toledo CRL-2631 B-cell lymphoma cell line, mean of three independent experiments, read-out: TC50 (the source's name)
Description: as §1

wide array of fungi = settings: cited from earlier work
[1] = Pharmacokinetics of occidiofungin in DOPC or DOPC:DPPG vesicles; type: in vivo, mice; settings: vesicle formulations, 2.5 mg/kg i.v., mice
Description: Entrapment of occidiofungin in vesicles was done using 1,2-Dioleoyl-sn-glycero-3-phosphocholine (DOPC) and 1,2-dipalmitoyl-sn-glycero-3-[phospho-rac-(3-lysyl(1-glycerol))] (DPPG) from Avanti polar lipids. Lipid cake formation and subsequent hydration was done according to the manufacturer's recommendation. Briefly, 20 mg/ml of DOPC in chloroform was placed in a glass beaker and dried by vacuum evaporation to remove the organic solvent. The lipid film formed was hydrated using a 1 μg/μl solution of occidiofungin in 1.5% (2-Hydroxypropyl)-β-cyclodextrin (Alfa Aesar), while maintaining the lipid concentration at 20 mg/ml and the solution was sonicated to form the vesicles. Similarly, DPPG was mixed with DOPC at a ratio of 9:1 (DOPC:DPPG) to make a homogenous lipid mixture at a concentration of 20 mg/ml and the same process of drying and hydration was repeated to make vesicles. Following vesicle formation, estimation of the amount of occidiofungin trapped inside each type of vesicle was done. The mixture containing free and vesicle trapped occidiofungin was passed through a gel filtration column containing Sephadex G-10 beads. The void volume (containing only the vesicle trapped occidiofungin) was collected and occidiofungin extracted using methanol (50% final concentration). Liquid chromatography was done on the extracted sample, and a standard and the concentration of occidiofungin in the extracted sample was estimated by a comparison of peak volumes.
Occidiofungin in DOPC and DOPC-DPPG, at a concentration of 2.5 mg/kg, with ˜1.25 mg/kg entrapped in vesicles, was administered to six female BALB/c mice respectively via intravenous administration. […] The mice were weighed prior to the start of the experiment and every 24 hours post injection (hpi).
Blood was drawn at time points 1 hpi, 3 hpi, 5 hpi, 7 hpi, 9 hpi, 12 hpi, 18 hpi, 24 hpi and 48 hpi. 15 μl of blood was drawn from the lateral saphenous vein of each mouse for the first three time points. Blood from three mice were pooled together and added to 5 μl of 6.4% citric acid to prevent coagulation. From the fourth time point, blood was drawn from the tail vein of the mice. Blood samples were spun down at 13000 rpm for 10 minutes to separate the plasma. The plasma and the blood pellet obtained were stored separately at −20° C. until analysis. The plasma samples were thawed and the occidiofungin was extracted using a final concentration of 50% methanol. The protein precipitate was spun down at 13000 rpm for 10 minutes and the supernatant was used for analysis. Liquid chromatography was done using Acclaim 120 C18 columns (Length: 150 mm; I.D: 2.1 mm; 5 μm) to purify the occidiofungin in the sample. The occidiofungin was then subjected to MS/MS. Fragmentation of the occidiofungin (parent mass 1200 and 1216 Da) was carried out and the fragment of 1068 and 1084 Da m/z, which corresponds to the occidiofungin molecule (A and B forms, respectively) without the xylose sugar, was used for quantification of occidiofungin. A calibration curve constructed using standard concentrations of occidiofungin in plasma was used to analyze the samples obtained from the mice for pharmacokinetics (See FIGS. 6A-6B & 7A-7B).

Substance: occidiofungin
- CC50 (SW1088): 68 nM
- CC50 (OVCAR8; OVCAR8 ovarian cancer cell line, 48 hours, mean of three independent experiments, read-out: TC50 (the source's name)): 61 nM
- activity against the cancer cell lines relative to what has been reported against Candida species (OVCAR8; cancer cell lines OVCAR8, SW1088, Toledo together): ten to twenty-fold higher
- CC50 (Toledo (ATCC CRL-2631)): 70 nM
- concentrations at which antifungal activity was observed (wide array of fungi): micromolar to sub micromolar
- half-life [1]: ~14 h
